The nature of series [1]: Plasma pharmacokinetics in male and female SD rats after single intravenous and intragastric administration. It counts as in vivo. The note with it: rat; for clearance: read-out: plasma clearance rate; for Vd: read-out: steady state apparent volume of distribution (Vdss); for bioavailability: PO 4.0 mg/kg vs IV 2.0 mg/kg; for Cmax: read-out: peak concentration (Cmax); for Tmax: read-out: peak time Tmax. The source says: Experimental purpose: Plasma pharmacokinetics of male and female SD rats after single intravenous injection and intragastric administration as well as repeated intragastric administration for 8 days for the compound of formula (I).
1. In this experiment, 12 SD rats, half males and half females, were provided by Beijing Vital River Laboratory Animal Technologies Co., Ltd., and were divided into 2 groups according to the similarity of their body weights, each group had 3 females and 3 males. The details of the administration protocol and blood collection protocol were shown in Table 5 and Table 6, respectively.
All animals fasted every other night before the first day of administration and resumed to be fed 4 hours after the administration.
Note: DMSO means dimethyl sulfoxide; HP-β-CD means hydroxypropyl-β-cyclodextrin; MC means methyl cellulose;
IV means intravenous administration; PO means intragastric administration.
Sample Collection and Analysis Methods
0.15 mL of blood samples from experimental animals were collected by jugular vein puncture, and immediately transferred to labeled centrifuge tubes containing K2-EDTA (0.5 M), and the plasma was separated by centrifugation within 30 minutes (centrifugation condition: 3000 g, 4° C., 15 minutes). Plasma concentrations were measured using a validated LC/MS/MS analysis method; plasma concentrations were processed using a non-compartment model of WinNonlin™ Version 6.3 (Pharsight, Mountain View, Calif.) pharmacokinetics software, and the pharmacokinetic parameters were calculated using the linear logarithmic trapezoid method.

For series [2], the target named is T1, uric acid transporter URAT1 (Homo sapiens, UniProt Q96S37).
T1 construct: expressed in transfected cells; host or cells: HEK293A, stably overexpressing URAT1; the empty vector control is HEK293A-pcDNA3.1
T1 sequence (Q96S37 1-553): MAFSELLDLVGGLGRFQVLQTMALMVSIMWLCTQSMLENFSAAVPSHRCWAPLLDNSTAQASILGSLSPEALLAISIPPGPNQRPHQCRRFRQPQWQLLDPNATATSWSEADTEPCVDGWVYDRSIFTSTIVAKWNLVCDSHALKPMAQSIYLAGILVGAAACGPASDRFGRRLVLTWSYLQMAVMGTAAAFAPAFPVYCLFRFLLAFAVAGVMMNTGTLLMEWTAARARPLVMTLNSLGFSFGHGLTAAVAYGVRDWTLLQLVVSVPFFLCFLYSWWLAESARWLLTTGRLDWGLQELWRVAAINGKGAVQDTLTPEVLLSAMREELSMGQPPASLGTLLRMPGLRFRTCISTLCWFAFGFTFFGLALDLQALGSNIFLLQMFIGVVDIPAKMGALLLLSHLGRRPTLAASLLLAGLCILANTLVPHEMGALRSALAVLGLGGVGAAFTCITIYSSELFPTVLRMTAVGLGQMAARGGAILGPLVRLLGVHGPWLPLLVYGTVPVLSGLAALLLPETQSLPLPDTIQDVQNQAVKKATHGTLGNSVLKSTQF
Nature of the series: Uptake cell inhibition experiment: URAT1-mediated 14C-uric acid uptake in HEK293A-URAT1 cells. The format is cell-based.
Experimental: 1) DMSO was used as the solvent of a 200-fold working solution, the storing solution was diluted to a 200-fold working solution at each administration concentration.
2) Hanks balanced salt solution (without Cl^−) was used as the solvent for the 2-fold working solution of transport protein URAT1, and then 200-fold working solution in 1) was diluted by 100 times to obtain a 2-fold working solution at each administration concentration. […]
First, the culture medium in the culture plate was removed, and it was washed once with Hanks buffer salt solution (without Cl^−). […] The cell lysate was taken into a scintillation vial, and 3 mL of Aquasol-2 scintillation liquid was added, and the radioactive intensity in the sample was measured by using Tri-Carb 2910TR liquid scintillation instrument. […]
Three repeats (i.e. n=3) were set for each administration concentration. Mean±standard error (SD) was calculated using statistical formulas in Microsoft® Excel 2010 software.
According to the inhibitory rate (IR) for each transporter at each administration concentration, IC50 value, the effect of the compound on the transport activity of the drug transporter was calculated through Prism5.0 in combination with the Forecast function in Microsoft® Excel 2010 software.

The nature of series [3]: Solubility test of crystal form A in 9 vehicles (HPLC). It counts as physicochemical. The note with it: for Solubility (4 hrs) / Solubility (24 hrs) / solubility at 4 h / solubility at 24 h: 37° C.; for Solubility (4 hrs) / solubility at 4 h: stirring 4 hrs; for Solubility (24 hrs) / solubility at 24 h: stirring 24 hrs; for solubility at 4 h / solubility at 24 h: thermodynamic from solid. The protocol: 1. Preparation of diluent and mobile phase
Diluent: 300 mL of pure water and 100 mL of pure acetonitrile were accurately measured, and mixed in a 1 L glass bottle, ultrasonically degassed for 10 minutes for use.
Mobile phase A: 0.1% phosphoric acid aqueous solution
For example: 2.0 mL of phosphoric acid was added into 2000 mL of water, and the mixture was ultrasounded for 10 minutes, mixed evenly, and naturally cooled to room temperature, as mobile phase A.
Mobile phase B: acetonitrile.
2. Preparation of the control solution (using crystal form A per se as the control sample)
5 mg of crystal form A was accurately weighed and placed in a sample bottle, and 10 mL of diluent was added, and the mixture was ultrasounded for 5 minutes, naturally cooled to room temperature, mixed evenly, and labeled as working control solution STD-1.
5 mg of crystal form A was accurately weighed and placed in a sample bottle, and 10 mL of diluent was added, and the mixture was ultrasounded for 5 minutes, naturally cooled to room temperature, mixed evenly, and labeled as working control solution STD-2.
3. Preparation of linear solution
The aforementioned working control solution STD-1 was successively diluted by 1 time, 10 times, 100 times, 1000 times and 2000 times, and was labeled as linear solutions L1, L2, L3, L4 and L5.
6 mg of crystal form A was accurately weighed respectively and added into 8 mL glass bottle, and then 3 mL of different solvents (0.1N hydrochloric acid solution, 0.01N hydrochloric acid solution, purified water, pH 3.8 buffer solution, pH 4.5 buffer solution, pH 5.5 buffer solution, pH 6.0 buffer solution, pH 7.4 buffer solution, pH 6.8 buffer solution) were accurately added to prepare the suspensions. A stirrer was added to the above suspensions, and the suspensions were fully stirred at 37° C. in dark. After stirring, the solids in the pH 7.4 buffer solution and the pH 6.8 buffer solution were completely dissolved, 6 mg of crystal form A were accurately weighed respectively, and added to the buffer solutions, and stirred fully again to prepare suspensions. After stirring for 4 hours and 24 hours, samples were taken and centrifuged. The solutions were filtered with a filter membrane and their concentrations were measured by HPLC.

Where [4] appears, read: female SD rats, IV single, 2.0 mg/kg.
Setting [5] is: female SD rats, single intragastric (PO) 4.0 mg/kg.
Setting [6] is: male SD rats, IV single, 2.0 mg/kg.
[7] abbreviates: male SD rats, single intragastric (PO) 4.0 mg/kg.
Where [8] appears, read: aqueous buffer, pH 4.5 buffer solution.
The mark [9] stands for this setting: aqueous buffer, pH 5.5 buffer solution.
[10] abbreviates: aqueous buffer, pH 6.0 buffer solution.
Setting [11] is: aqueous buffer, pH 6.8 buffer solution.
Where [12] appears, read: aqueous buffer, pH 7.4 buffer solution.

Results on 2 compounds are retold here after patent US10995087B2, “Crystal form of URAT1 inhibitor, and preparation method therefor” (MEDSHINE DISCOVERY INC., priority 2017, dated 2021).

A word on the AUC(0-inf): it is the area under the concentration-time curve extrapolated to infinity. A lower AUC(0-inf) goes with less exposure. For orientation: clearance means a measure of how efficiently the substance is removed, as volume per time. Usually bioavailability stands for dose-corrected exposure relative to a reference, in per cent. Read a low bioavailability as little systemic uptake. The Tmax is the time from dosing to the highest level. A word on the IC50: it is the midpoint of a concentration-inhibition curve. What is called solubility is the dissolved amount per volume that the medium holds.

≈ marks a conversion by molar mass, not a printed value. Like-named read-outs stand apart in the source and are kept apart here. Where only a bound is given, the exact number is not on record here.

As to `CC(C)(Sc1nnc(Br)n1-c1sc(C2CC2)c2c1CCC(F)(F)C2)C(=O)O` [compound of formula (I)], the AUC(0-inf) in series [1] (setting [4]) came to 5240 ± 544 ng·h/mL; in series [1] (setting [5]) it was 9010 ± 4670 ng·h/mL; in series [1] (setting [6]) it was 3530 ± 723 ng·h/mL; in series [1] (setting [7]), 2510 ng·h/mL. Moreover, the half-life was 3.04 ± 1.12 h in series [1] (female SD rats, IV single, 2.0 mg/kg, read-out: elimination half-life (T1/2) (converted)); 3.48 ± 0.835 h in series [1] (female SD rats, single intragastric (PO) 4.0 mg/kg, read-out: elimination half-life (T1/2) (converted)); 2.52 ± 0.671 h in series [1] (male SD rats, IV single, 2.0 mg/kg, read-out: T1/2 (converted)); 1.72 h in series [1] (male SD rats, single intragastric (PO) 4.0 mg/kg, read-out: elimination half-life (T1/2) (converted)). Besides, the clearance in series [1] (setting [4]) worked out at 6.41 ± 0.656 mL/min/kg; in series [1] (setting [6]), 9.76 ± 2.29 mL/min/kg. In addition, the Vd was 1.55 ± 0.408 L/kg in series [1] (setting [4]) and 1.65 ± 0.44 L/kg in series [1] (setting [6]). The bioavailability in series [1] (female SD rats) turned out to be 86%; in series [1] (male SD rats) it was 35.6%. Moreover, the Cmax turned out to be 2110 ± 1350 ng/mL in series [1] (setting [5]) and 1130 ± 483 ng/mL in series [1] (setting [7]). For the same compound, the Tmax stood at 0.667 ± 0.289 h in series [1] (setting [5]) and 0.417 ± 0.144 h in series [1] (setting [7]). In series [2] (HEK293A-URAT1 cells, 2 min administration, n=3, read-out: IC50, inhibition of uptake of 14C-UA mediated by URAT1), the IC50 came out at 34 nM. Besides, in series [2] (ratio of IC50 values), the “Inhibitory effect on URAT1 relative to reference compound lesinurad” value is on record as “about 177 times”.
Turning to `CC(C)(Sc1nnc(Br)n1-c1sc(C2CC2)c2c1CCC(F)(F)C2)C(=O)O` [crystal form A], the “Solubility (4 hrs)” value in series [3] (0.01N HCl), in series [3] (0.1N HCl) and in series [3] (pH 3.8 buffer solution) was “<LOQ” each time. Moreover, the “Solubility (24 hrs)” value in series [3] (0.01N HCl), in series [3] (0.1N HCl) and in series [3] (pH 3.8 buffer solution) was “<LOQ” each time. For the same compound, the solubility at 4 h in series [3] (setting [8]) came to 1 µg/mL (≈ 2.09 µM); in series [3] (setting [9]), 66 µg/mL (≈ 138 µM); in series [3] (setting [10]), 214 µg/mL (≈ 447 µM); in series [3] (setting [11]), 1960 µg/mL (≈ 4100 µM); in series [3] (setting [12]), 3820 µg/mL (≈ 7990 µM); in series [3] (Purified water), 45 µg/mL (≈ 94.1 µM). In addition, the solubility at 24 h is 1 µg/mL (≈ 2.09 µM) in series [3] (setting [8]); 66 µg/mL (≈ 138 µM) in series [3] (setting [9]); 204 µg/mL (≈ 426 µM) in series [3] (setting [10]); 1840 µg/mL (≈ 3850 µM) in series [3] (setting [11]); 4050 µg/mL (≈ 8460 µM) in series [3] (setting [12]); 58 µg/mL (≈ 121 µM) in series [3] (Purified water). For the same compound, in series [3] (high pH buffer), the “Solubility in high pH buffer (conclusion)” value is given as “good solubility”.
